The values below come from patent US20210206744A1, “BENZIMIDAZOLE COMPOUNDS AS AGRICULTURAL CHEMICALS” (REDAG CROP PROTECTION LTD, priority 2017, published 2021).

One assay has as its system Phytophthora cactorum. In words: 96 well plate test. The class given is cell-based. Set-up: key to EC50 Phytophthora cactorum: G: no control detected at 2 ppm; F: an EC50 of ≥2 ppm; an EC50 of less than 2 ppm. As to conditions: agar amended to 2, 0.2, 0.02 and 0.002 ppm, 18° C., assessed after 2 to 3 days; for EC50: Phytophthora cactorum. As to the method: Compounds were screened in 96 well plates with 10 compounds per plate. Each compound was screened using agar amended to 2, 0.2, 0.02 and 0.002 ppm, with proline at 50 and 10 ppm and 0.2% DMSO used as controls. Each test concentration and standard was replicated twice on a plate. Compounds were screened against Phytophthora cactorum. The agar used in the test is a 1% potato dextrose agar. 1000 spores/mL agar were added to the appropriate agar.
A ×10 stock solution in 2% DMSO was produced for each dose i.e. 20, 2, 0.2 and 0.02 ppm, and 10 μl of this added to the appropriate wells on the plate. An equivalent amount of 2% DMSO and proline stock at 500 and 100 ppm were added for the controls. To each well 90 μl of the appropriate agar spore suspension was added to give the required final well concentrations. Plates were incubated at room temperature (18° C.) and assessed after 2 to 3 days. The amount of pathogen growth in each well was compared to the DMSO controls and an EC50 concentration was calculated. The results are provided in Table 1 in which G represents no control detected at 2 ppm, F represents an EC50 of ≥2 ppm, and E represents an EC50 of less than 2 ppm.

The test system of the next assay is Pythium ultimum. The assay is described as follows: Amended agar assay. As to conditions: potato dextrose agar amended with compound at 2 ppm, 18° C., 2 to 7 days; for inhibition of growth at 2 ppm: Globisporangium ultimum, read-out: % control Pythium ultimum (% reduction in colony growth compared to the control plate). Set-up: key to % control Pythium ultimum (% reduction in colony growth compared to the control plate): D: no control detected at this concentration; C: up to 50% control; B: from 50 to 99% control; A: a control of greater than 99%, i.e. no detectable colony growth. Type of assay: cell-based. As to the method: Amended Agar Assay Testing was carried out on potato dextrose agar (PDA) amended with each compound at a test concentration of 2 ppm. Amended agar was poured into three replicate 9 cm petri dishes. Each replicate dish was inoculated in the centre with a 5 mm agar plug taken from the leading edge of a culture aged between 2 and 7 days old; the age of the culture was dependent on the growth rate of the pathogen being tested. The test pathogen was Pythium ultimum. Plates were incubated at 18° C. and the diameter of each colony measured before growth on the fastest growing plate reached the plate edge. This varied between 2 and 7 days depending on the growth rate of test pathogens. The % reduction in colony growth compared to the control plate was calculated. The results are provided in Table 1, in which D represents no control detected at this concentration; C represents up to 50% control; B from 50 to 99% control; and A represents a control of greater than 99%, i.e. no detectable colony growth.

A value given as a limit tells only on which side of the number the result lay.

With `CC(C)CC(=O)Nc1cccc(COc2nc3c(Br)cccc3n2-c2nnnn2C)n1` [Compound 41], the EC50 (commonly the concentration giving half of the maximal effect) with Phytophthora cactorum was < 2 µg/mL. The inhibition of growth at 2 ppm in the assay on Pythium ultimum is > 99%.

Consider `CCCCC(=O)Nc1cccc(COc2nc3c(Br)cccc3n2-c2nnnn2C)n1` [Compound 42], for which, in the assay on Phytophthora cactorum, the EC50 is < 2 µg/mL. For the same compound, the inhibition of growth at 2 ppm in the assay on Pythium ultimum is > 99%.

In the case of `CCCCC(=O)Nc1nc(COc2nc3c(Cl)cccc3n2-c2nnnn2C)cs1` [Compound 43], the “EC50 Phytophthora cactorum” value with Phytophthora cactorum was “G”. Moreover, the “% control Pythium ultimum (% reduction in colony growth compared to the control plate)” value in the assay with Pythium ultimum was “D”.

As to `CC(C)CCC(=O)Nc1nc(COc2nc3c(Cl)cccc3n2-c2nnnn2C)cs1` [Compound 44], in the assay on Phytophthora cactorum, the EC50 was ≥ 2 µg/mL. The inhibition of growth at 2 ppm in the assay with Pythium ultimum was < 50%.

For `Cn1nnnc1-n1c(OCc2cccc(NC(=O)OC(C)(C)C)n2)nc2c(-c3ccccc3)cccc21` [Compound 45, tert-Buty (6-(((1-(1-methyl-1H-tetrazol-5-yl)-4-phenyl-1H-benzo[d]imidazol-2-yl)oxy)methyl)pyridin-2-yl)carbamate], the concentration giving a half-maximal response (EC50) with Phytophthora cactorum is < 2 µg/mL. Further, the inhibition of growth at 2 ppm in the assay with Pythium ultimum is > 99%.

Regarding `CC(C)COC(=O)Nc1cccc(COc2nc3c(-c4ccccc4)cccc3n2-c2nnnn2C)n1` [Compound 46], the EC50 with Phytophthora cactorum was < 2 µg/mL. For the same compound, the inhibition of growth at 2 ppm with Pythium ultimum is > 99%.

Turning to `CC(C)COC(=O)Nc1cccc(COc2nc3c(C4CC4)cccc3n2-c2nnnn2C)n1` [Compound 47], the EC50 in the assay on Phytophthora cactorum was < 2 µg/mL. For the same compound, the inhibition of growth at 2 ppm in the assay on Pythium ultimum was > 99%.
